ChEMBL document CHEMBL1201862, “PubChem BioAssay data set” (2004)
Values joined by “and” are separate entries in the source; they are usually repeats but may differ in a detail not shown here. Equal values may be shown once. Active and inactive are the calls of the source.

What was measured:
[1] = viability of uninfected HEp-2 cells – cell-based, HTS, cytotoxicity control for RSV inhibitor project, dose response (AID 2410); type: functional; conditions: human respiratory syncytial virus
[2] = luciferase reporter signal suppression in cells – H4 neuroglioma cells, luminescence, dose response (AID 1990); type: functional, cell-based
[3] = luciferase reporter signal reduction – luminescence, H4-C neuroglioblastoma cells, dose response (AID 2458); type: functional, cell-based;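 further: H4 neuroglioblastoma cells stably carrying a luciferase reporter gene fusion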
BJ [4] = experiment: BJ-TERT fibroblast viability loss – cell-based, RAS-independent, luminescence, dose response (AID 1933); type: functional; conditions: Homo sapiens
cells = type: functional, cell-based
[5] = Luminescence Cell-Based Dose Response HTS to Identify Inhibitors of 5'UTR Stem-Loop Driven Prion Protein mRNA Translation in H4 Neuroglioblastoma Cells. [Related pubchem assays: 1827 (Project Summary), 1813 (Primary HTS)]; type: functional
[6] = alpha-synuclein stem-loop luciferase translation blockers – H4 neuroglioma cells, luminescence, confirmation (AID 1988); type: functional, cell-based
BJ [7] = experiment: cells; type: functional, cell-based; conditions: Homo sapiens
BJ [8] = experiment: BJ-TERT-LT-ST fibroblast viability loss – cell-based, RAS-independent, luminescence, dose response (AID 1935); type: functional; conditions: Homo sapiens;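 further: BJ fibroblasts immortalized with TERT plus LT and ST oncogenes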
[9] = DRD fibroblast viability loss – cell-based, non-viral oncogenic, luminescence, dose response (AID 1934); type: functional; conditions: Homo sapiens
[10] = alpha-synuclein stem-loop translation blockers – luminescence, H4 neuroglioblastoma cells, dose confirmation, confirmation (AID 2454); type: functional, cell-based;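 further: H4 neuroglioblastoma cells carrying an alpha-synuclein 5'UTR luciferase reporter; potency for inhibition of the luciferase signal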
[11] = HEK-293T viability loss after treatment – luminescence, T-cell screen hits, cytotoxicity control for TCR NF-kB inhibitor project, dose response (AID 489026); type: functional, cell-based;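 further: cells exposed to compound about 14 hours before the viability readout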
[12] = target: Luciferin 4-monooxygenase (Photinus pyralis, UniProt P08659); experiment: Counter Screen for Luciferase-based Assay Positives. [Related pubchem assays: 620, 618, 411 ]
Chain of Luciferin 4-monooxygenase (P08659 whole entry): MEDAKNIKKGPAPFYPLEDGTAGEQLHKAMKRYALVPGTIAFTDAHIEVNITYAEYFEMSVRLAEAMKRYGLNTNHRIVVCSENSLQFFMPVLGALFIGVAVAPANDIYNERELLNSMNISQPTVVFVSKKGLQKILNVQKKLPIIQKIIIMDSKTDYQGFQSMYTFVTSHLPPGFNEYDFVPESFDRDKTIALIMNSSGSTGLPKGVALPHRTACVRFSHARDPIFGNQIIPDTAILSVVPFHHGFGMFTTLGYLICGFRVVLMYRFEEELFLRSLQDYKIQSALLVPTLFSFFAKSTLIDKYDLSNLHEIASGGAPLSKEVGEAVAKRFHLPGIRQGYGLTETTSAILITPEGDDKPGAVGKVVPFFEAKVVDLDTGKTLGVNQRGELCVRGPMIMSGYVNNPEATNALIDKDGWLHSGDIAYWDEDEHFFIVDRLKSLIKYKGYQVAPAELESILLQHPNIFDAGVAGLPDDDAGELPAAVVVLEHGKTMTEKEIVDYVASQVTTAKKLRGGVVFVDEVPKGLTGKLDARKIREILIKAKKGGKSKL

HT-1080 = experiment: HT1080 cell viability loss – fluorescence readout (AID 620); type: functional, cell-based; conditions: Homo sapiens
[13] = target: E3 ubiquitin-protein ligase Mdm2 (Homo sapiens, UniProt Q00987); experiment: MDM2-luc reporter signal enhancers, multi-concentration potency testing, MDM2 ubiquitin-protein ligase inhibitor program, whole-cell format, luminescence detection, 384-well microplate (AID 1394); type: functional;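 further: MDM2 E3 inhibitors raise luminescence so EC50 is for signal enhancement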
HEK293 [14] = experiment: Fluorescence-based counterscreen for potentiators or agonists of NPY-Y2: cell-based high-throughput dose response assay to identify inhibitors of cyclic nucleotide gated ion channel (CNGC) activity. In this assay, the parental HEK293 cell line transfected with a cyclic-nucleotide gated ion channel (CNGC)-based cAMP sensor is used to measure inhibition of isoproterenol-induced CNGC activity by test compound.; type: functional; conditions: Homo sapiens
[15] = target: T1, Neuropeptide Y receptor type 2 (Homo sapiens, UniProt P49146); experiment: IC50 for human NPY-Y2 blockade – cell-based, counter-screen for NPY-Y1 antagonist project, dose response (AID 1278); type: functional
T1 sequence (P49146 whole entry): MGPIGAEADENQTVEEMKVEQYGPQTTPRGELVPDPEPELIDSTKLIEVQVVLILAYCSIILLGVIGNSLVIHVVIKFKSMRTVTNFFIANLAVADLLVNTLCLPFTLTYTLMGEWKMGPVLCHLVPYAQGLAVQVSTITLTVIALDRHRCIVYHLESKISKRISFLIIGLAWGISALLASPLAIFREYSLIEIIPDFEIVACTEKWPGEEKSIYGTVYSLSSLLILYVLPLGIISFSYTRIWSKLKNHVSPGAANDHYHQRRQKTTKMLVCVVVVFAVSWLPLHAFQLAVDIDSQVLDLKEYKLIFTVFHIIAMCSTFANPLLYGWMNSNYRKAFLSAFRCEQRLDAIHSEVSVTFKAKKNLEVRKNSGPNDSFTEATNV

[16] = target: T1, Neuropeptide Y receptor type 2; experiment: Fluorescence-based cell-based high-throughput dose response assay for agonists of NPY-Y2. [Related pubchem assays: 1703 (Screening assay (CNGC inhibitors).), 1359 (Screening assay (NPY-Y2 potentiators or agonists).), 1304 (Screening assay (NPY-Y1 potentiators or agonists).), 1710 (Screening assay (NPY-Y2 agonists).), 1791 (Summary AID.)]; type: functional
[17] = target: T2, Neuropeptide Y receptor type 1 (Homo sapiens, UniProt P25929); experiment: IC50 of human NPY-Y1 blockers – cell-based, dose response (AID 1277); type: functional
T2 sequence (P25929 whole entry): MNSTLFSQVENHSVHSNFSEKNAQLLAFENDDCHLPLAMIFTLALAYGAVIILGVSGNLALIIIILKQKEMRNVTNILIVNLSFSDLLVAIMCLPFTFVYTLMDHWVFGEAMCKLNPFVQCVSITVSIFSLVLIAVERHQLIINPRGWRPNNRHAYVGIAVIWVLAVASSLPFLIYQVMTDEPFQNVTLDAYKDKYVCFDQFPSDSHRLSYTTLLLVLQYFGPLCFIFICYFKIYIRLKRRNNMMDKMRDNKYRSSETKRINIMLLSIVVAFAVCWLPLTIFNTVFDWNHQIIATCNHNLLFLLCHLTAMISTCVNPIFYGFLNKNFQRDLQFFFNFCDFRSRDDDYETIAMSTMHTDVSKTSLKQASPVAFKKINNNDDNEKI

[18] = target: T2, Neuropeptide Y receptor type 1; experiment: Fluorescence-based counterscreen for agonists of NPY-Y2: cell-based high-throughput dose response assay for agonists of NPY-Y1.; type: functional
[19] = target: T3, Heat shock factor protein 1 (Mus musculus, UniProt P38532); experiment: enhancement of HSF1-driven luciferase signal – cell-based, NIH3T3, luminescence, dose retest, confirmation (AID 435004); type: functional;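 further: stress induced by proteasome inhibitor MG132 added 30 min after compound; luciferase reporter driven by HSF1 response element in NIH3T3 cells; actives raise luminescence as potentiators of the MG132 stress response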
T3 sequence (P38532 whole entry): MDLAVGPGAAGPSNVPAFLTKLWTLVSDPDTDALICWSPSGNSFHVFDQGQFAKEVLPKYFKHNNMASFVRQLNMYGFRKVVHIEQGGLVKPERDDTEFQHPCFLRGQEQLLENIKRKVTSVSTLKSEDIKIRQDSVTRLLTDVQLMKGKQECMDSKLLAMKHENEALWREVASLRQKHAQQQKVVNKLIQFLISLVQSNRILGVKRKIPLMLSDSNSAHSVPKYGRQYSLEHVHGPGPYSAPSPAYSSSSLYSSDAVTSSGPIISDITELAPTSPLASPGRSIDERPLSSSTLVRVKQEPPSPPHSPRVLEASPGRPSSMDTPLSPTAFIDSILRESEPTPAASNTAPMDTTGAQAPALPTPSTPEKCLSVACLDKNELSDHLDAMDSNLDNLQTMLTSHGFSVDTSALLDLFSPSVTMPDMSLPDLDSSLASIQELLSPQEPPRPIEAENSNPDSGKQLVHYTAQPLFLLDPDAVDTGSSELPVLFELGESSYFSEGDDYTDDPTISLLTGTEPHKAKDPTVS

[20] = reduction of Shn3 3'UTR-driven luciferase in osteoblasts – cell-based, Clone20 osteoblasts, firefly luciferase, cherry-picked, dose response (AID 624132); type: functional;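 further: firefly luciferase luminescence from reporter carrying the Shn3 3'UTR in osteoblasts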
[21] = loss of viability in HepG2 cells – cell-based, CellTiter-Glo, cherry-picked, cytotoxicity control for Shn3 inhibitor project, dose response (AID 624134); type: functional
[22] = non-specific 3'UTR reporter inhibition in Clone20-Shn3RL – cell-based, Renilla luciferase, cherry-picked, counter-screen for Shn3 inhibitor project, dose response (AID 624133); type: functional
HEK293 [23] = experiment: cells; conditions: Homo sapiens
HEK293 [24] = experiment: cells; conditions: Homo sapiens; remark: listed apart in the source
[25] = target: G2/mitotic-specific cyclin-B1 (Homo sapiens, UniProt P14635); experiment: Counterscreen assay for inhibitors of Wee1 degradation: dose response cell-based assay to identify inhibitors of cyclin B degradation. [Related pubchem assays: 1410, 1321 ]; type: functional
Wee1-like protein kinase = Wee1-like protein kinase (Homo sapiens, UniProt P30291); experiment: Dose Response Cell-based Assay for Inhibitors of Wee1 Degradation. [Related pubchem assays: 1410, 1321 ]; type: functional
Chain of Wee1-like protein kinase (P30291 whole entry): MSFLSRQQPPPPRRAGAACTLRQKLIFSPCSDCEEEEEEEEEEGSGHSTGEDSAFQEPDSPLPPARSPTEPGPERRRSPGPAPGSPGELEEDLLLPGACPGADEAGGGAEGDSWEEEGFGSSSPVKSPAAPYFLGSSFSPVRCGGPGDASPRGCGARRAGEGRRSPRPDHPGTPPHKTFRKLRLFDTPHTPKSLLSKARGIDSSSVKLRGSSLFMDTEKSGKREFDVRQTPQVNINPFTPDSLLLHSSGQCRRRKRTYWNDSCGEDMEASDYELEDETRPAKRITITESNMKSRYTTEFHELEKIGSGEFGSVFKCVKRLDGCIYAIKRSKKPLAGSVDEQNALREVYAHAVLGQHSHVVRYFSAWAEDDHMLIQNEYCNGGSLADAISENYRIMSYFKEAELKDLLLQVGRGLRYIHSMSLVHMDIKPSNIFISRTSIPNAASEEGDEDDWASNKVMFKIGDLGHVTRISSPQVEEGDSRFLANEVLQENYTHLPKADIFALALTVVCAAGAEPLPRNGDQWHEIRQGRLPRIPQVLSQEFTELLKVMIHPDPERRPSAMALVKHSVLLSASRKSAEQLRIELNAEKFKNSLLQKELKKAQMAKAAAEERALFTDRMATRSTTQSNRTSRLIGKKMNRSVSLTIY

[26] = target: T4, Voltage-gated N-type calcium channel alpha-1B subunit/Amyloid beta A4 precursor protein-binding family A member 1 (Homo sapiens, UniProt Q00975+Q02410); type: protein assay
T4 sequence (Q00975 whole entry): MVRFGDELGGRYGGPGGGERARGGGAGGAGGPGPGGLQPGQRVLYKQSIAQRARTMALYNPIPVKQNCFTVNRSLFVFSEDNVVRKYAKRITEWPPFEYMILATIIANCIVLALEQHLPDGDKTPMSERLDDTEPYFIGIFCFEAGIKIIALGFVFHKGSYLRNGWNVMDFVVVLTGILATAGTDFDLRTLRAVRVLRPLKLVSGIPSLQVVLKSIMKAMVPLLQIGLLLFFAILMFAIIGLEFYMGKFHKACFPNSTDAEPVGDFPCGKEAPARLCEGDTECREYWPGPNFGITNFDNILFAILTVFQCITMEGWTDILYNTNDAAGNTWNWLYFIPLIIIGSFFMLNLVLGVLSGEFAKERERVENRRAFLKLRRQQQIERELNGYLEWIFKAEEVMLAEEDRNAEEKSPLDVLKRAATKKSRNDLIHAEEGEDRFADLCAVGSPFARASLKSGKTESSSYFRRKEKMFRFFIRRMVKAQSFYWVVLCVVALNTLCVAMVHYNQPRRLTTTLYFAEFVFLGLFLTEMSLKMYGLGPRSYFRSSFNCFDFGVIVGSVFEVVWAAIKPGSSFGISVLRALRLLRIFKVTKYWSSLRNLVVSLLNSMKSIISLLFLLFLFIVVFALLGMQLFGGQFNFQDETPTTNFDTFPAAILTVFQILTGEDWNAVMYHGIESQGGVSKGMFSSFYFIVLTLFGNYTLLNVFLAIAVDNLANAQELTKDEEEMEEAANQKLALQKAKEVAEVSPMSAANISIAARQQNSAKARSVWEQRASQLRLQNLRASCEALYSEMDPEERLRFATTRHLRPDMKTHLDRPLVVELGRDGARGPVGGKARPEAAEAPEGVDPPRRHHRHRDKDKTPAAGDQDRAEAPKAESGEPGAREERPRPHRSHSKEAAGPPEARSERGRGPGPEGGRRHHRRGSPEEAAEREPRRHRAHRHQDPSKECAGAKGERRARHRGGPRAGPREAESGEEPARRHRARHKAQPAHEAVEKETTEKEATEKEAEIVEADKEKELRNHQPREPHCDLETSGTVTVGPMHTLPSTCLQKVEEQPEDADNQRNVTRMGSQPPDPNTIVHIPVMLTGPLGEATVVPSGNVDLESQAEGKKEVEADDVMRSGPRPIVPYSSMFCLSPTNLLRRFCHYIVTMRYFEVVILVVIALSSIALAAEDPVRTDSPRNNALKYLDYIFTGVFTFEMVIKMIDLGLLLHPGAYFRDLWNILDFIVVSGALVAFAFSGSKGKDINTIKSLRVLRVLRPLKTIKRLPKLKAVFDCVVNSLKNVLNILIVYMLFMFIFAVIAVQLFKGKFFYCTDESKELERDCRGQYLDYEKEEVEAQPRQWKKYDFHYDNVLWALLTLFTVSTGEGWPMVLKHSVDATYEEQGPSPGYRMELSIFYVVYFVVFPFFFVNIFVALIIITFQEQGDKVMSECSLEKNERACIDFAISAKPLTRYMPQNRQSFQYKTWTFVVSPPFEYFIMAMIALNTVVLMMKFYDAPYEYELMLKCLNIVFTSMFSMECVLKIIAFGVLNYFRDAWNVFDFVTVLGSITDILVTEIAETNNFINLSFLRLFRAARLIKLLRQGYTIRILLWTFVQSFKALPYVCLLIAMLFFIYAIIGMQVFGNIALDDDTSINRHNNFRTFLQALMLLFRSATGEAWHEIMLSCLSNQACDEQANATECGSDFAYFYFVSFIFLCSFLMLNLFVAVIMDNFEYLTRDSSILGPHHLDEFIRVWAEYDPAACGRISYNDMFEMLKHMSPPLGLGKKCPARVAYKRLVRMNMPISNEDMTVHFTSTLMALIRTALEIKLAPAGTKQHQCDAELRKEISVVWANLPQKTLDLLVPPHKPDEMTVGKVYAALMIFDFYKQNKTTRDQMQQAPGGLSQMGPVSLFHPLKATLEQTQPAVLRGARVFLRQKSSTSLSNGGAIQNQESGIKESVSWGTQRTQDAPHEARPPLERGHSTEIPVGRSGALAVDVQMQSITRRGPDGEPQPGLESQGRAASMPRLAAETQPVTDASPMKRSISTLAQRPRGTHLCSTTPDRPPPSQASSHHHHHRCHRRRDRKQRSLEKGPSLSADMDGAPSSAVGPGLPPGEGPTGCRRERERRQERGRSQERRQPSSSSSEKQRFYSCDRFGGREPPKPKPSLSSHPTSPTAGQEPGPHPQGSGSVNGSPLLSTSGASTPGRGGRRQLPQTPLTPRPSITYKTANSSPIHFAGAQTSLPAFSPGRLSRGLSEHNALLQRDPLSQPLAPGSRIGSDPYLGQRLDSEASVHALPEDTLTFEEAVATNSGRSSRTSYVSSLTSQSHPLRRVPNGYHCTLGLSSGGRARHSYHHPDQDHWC
T4 sequence (Q02410 whole entry): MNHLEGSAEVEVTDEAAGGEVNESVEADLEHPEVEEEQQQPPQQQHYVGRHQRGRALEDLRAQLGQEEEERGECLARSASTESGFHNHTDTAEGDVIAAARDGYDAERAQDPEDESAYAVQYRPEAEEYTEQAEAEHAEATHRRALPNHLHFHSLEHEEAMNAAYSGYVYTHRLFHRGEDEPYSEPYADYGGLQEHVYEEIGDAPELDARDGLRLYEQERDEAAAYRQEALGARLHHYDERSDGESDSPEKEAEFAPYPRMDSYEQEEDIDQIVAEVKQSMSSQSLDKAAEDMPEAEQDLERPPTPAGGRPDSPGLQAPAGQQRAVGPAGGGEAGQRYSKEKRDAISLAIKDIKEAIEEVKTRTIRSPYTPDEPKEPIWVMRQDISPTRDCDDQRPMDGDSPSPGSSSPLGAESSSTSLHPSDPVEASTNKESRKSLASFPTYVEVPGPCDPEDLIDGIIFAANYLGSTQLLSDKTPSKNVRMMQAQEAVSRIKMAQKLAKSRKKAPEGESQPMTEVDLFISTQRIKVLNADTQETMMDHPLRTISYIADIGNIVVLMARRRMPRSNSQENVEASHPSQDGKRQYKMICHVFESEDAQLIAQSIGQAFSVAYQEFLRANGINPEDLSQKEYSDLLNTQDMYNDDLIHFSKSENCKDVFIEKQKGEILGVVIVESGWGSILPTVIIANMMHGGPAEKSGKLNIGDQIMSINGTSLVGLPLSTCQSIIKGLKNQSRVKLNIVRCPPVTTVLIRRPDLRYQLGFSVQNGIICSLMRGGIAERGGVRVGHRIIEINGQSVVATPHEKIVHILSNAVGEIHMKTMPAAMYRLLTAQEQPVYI

[27] = Luminescence-based counterscreen assay for KLF5 inhibitors: dose response cell-based high throughput screening assay to identify cytotoxic compounds using the IEC-6 intestinal epithelial cell line. [Related pubchem assays: 1700 (Primary screen.), 1834 (Confirmation screen.), 1858 (Summary AID.), 1905 (Counterscreen.)]; type: functional
[28] = target: T4, Voltage-gated N-type calcium channel alpha-1B subunit/Amyloid beta A4 precursor protein-binding family A member 1; type: protein assay; remark: listed apart in the source
BJ [29] = experiment: growth inhibition of engineered Ras-driven BJ cells – cell-based, alamar blue fluorescence, cherrypicked samples, dose response (AID 2631); type: functional; conditions: Homo sapiens;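 further: confirmatory dose-response assay in RAS-dependent BJ fibroblasts engineered with TERT, LT and ST, with cytotoxicity read by fluorescence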
Cytochrome P450 2D6 = Cytochrome P450 2D6 (Homo sapiens, UniProt P10635); experiment: qHTS Assay for Inhibitors and Substrates of Cytochrome P450 2D6. [Related pubchem assays: 410 ]; type: ADME; conditions: read-out: Potency
Cytochrome P450 3A4 = Cytochrome P450 3A4 (Homo sapiens, UniProt P08684); conditions: Potency;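 further: confirmatory qHTS run detecting inhibitors and substrates of CYP3A4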
Chain of Cytochrome P450 3A4 (P08684 whole entry): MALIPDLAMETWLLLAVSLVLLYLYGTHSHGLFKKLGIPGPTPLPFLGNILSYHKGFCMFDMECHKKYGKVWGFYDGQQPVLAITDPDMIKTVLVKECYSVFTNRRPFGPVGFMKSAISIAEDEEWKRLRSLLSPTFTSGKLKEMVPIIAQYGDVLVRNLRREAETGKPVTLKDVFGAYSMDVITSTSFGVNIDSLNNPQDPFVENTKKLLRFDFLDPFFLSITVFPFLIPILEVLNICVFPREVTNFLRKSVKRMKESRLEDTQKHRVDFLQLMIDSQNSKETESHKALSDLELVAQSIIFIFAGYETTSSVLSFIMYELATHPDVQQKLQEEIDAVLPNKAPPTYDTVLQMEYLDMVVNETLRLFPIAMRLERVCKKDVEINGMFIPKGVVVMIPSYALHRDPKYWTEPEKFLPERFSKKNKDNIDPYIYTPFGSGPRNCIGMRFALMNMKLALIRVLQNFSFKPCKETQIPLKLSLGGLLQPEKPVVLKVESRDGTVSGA

With `CC(=O)c1sc2c(c1OC(=O)c1ccc(Cl)cc1Cl)c(=O)n(-c1ccccc1)c(=S)n2-c1ccccc1` the CC50 [1] was 1.59 µM (active), the EC50 [2] was 0.134 µM (active) and the EC50 [3] was 0.578 µM (active). For the same molecule, the EC50 (BJ [4]) was 0.201 µM (active), the EC50 (cells) was 0.444 µM (active) and the EC50 [5] was < 0.1 µM (active). For the same molecule, the EC50 [6] was < 0.1 µM (active), the EC50 (BJ [7]) was 104 µM (active) and the EC50 (BJ [8]) was 6.47 µM (inconclusive). The EC50 [9] was 0.36 µM (inconclusive), the EC50 [10] was 0.716 µM (active) and the IC50 [11] was > 80 µM (inactive).
For `O=c1/c(=C/c2ccccn2)sc2nc3ccccc3n12`, the EC50 [12] was < 0.2 µM (active) and the EC50 (HT-1080) was > 50 µM (not active).
In the case of `C/C1=C\[C@@H](C)C/C=C/[C@H]2[C@@H]3O[C@]3(C)[C@@H](C)[C@H]3[C@H](Cc4c[nH]c5ccccc45)NC(=O)[C@]32C(=O)/C=C/C(=O)[C@@H]1O`, the EC50 [13] is reported as 12 µM (not active), the EC50 (HEK293 [14]) is reported as > 35.4 µM (not active) and the IC50 [15] is reported as 4.76 µM (active). The EC50 (BJ [4]) was 3.85 µM (inconclusive), the EC50 [16] was > 35.4 µM (not active) and the EC50 (BJ [7]) was 6.74 µM (inconclusive). The IC50 [17] was 10.6 µM (not active), the EC50 [18] was > 35.4 µM (not active) and the EC50 (BJ [8]) was 10.7 µM (inconclusive). For the same molecule, the EC50 [9] was 5.67 µM (active), the EC50 [19] was 6.24 µM (inconclusive) and the AC50 [20] was 6.44 µM (active). The AC50 [21] was 24.2 µM (active), the AC50 [22] was 5.25 µM (active) and the EC50 (HEK293 [23]) was > 59.6 µM (inactive). For the same molecule, the EC50 (HEK293 [24]) was > 59.6 µM (inactive).
With `Cc1nc2ccccn2c1-c1csc(Nc2cccc(O)c2)n1` the EC50 [25] was > 49.7 µM (not active), the EC50 (BJ [4]) was 7.42 µM (active) and the EC50 (Wee1-like protein kinase) was > 49.7 µM (not active). The IC50 [26] was 10 µM (active), the EC50 (BJ [7]) was 82.4 µM (inconclusive) and the IC50 [27] was > 13.3 µM (not active). The IC50 [28] was > 50 µM (inactive), the EC50 (BJ [8]) was 1.55 µM (inconclusive) and the EC50 [9] was 1.96 µM (active). The EC50 (BJ [29]) was 0.205 µM (active).
In the case of `Cc1cccc(C#Cc2ccccc2)n1`, the AC50 (Cytochrome P450 2D6) is reported as 39.8 µM (inconclusive) and the AC50 (Cytochrome P450 3A4) is reported as 20 µM (inconclusive) and 1.26 µM (inconclusive).
